“And” between values parts separate entries of the source, which are not always exact repeats. Equal values may be shown once. Read-outs that look alike come from different tables or passages of the source.
Columns and labels:
[1] = biological target: GluN1–1a/2B (Rattus norvegicus, UniProt P35439+Q00960); test: Two-electrode voltage-clamp recordings, Xenopus oocytes; format: cell-based; conditions: for Spermine modulation (% control): 100 μM spermine, −20 mV
[2] = biological target: GluN1–1a/2BC1/2DC2 (Rattus norvegicus, UniProt P35439+Q00959+Q00960+Q62645, A876H/F846L/G856D/H848F/K857R/M851T/M860L/Q845K/R869K/V861L/V866F); test: as above; format: cell-based; conditions: for Spermine modulation (% control): 100 μM spermine, −20 mV
[3] = biological target: GluN1–1b/2B (Rattus norvegicus, UniProt P35439+Q00960); test: as above; format: cell-based; conditions: isoform 1b
[4] = biological target: GluN1–1b/2BC1/2DC2 (Rattus norvegicus, UniProt P35439+Q00959+Q00960+Q62645, A876H/F846L/G856D/H848F/K857R/M851T/M860L/Q845K/R869K/V861L/V866F); test: as above; format: cell-based; conditions: isoform 1b
[5] = tested on: NMDA receptors in cerebellar Golgi cells (thought to be mainly GluN1/2B/2D); conditions: single-channel recordings, outside-out patches; ref Brickley et al., 2003; cited from earlier work
[6] = biological target: GluN1–1a/2D (Rattus norvegicus, UniProt P35439+Q62645); test: Two-electrode voltage-clamp recordings, Xenopus oocytes; format: cell-based; conditions: for Spermine modulation (% control): 100 μM spermine, −20 mV
GluN1–1a/2D, sequence (Q62645 28-1323, other chains not shown): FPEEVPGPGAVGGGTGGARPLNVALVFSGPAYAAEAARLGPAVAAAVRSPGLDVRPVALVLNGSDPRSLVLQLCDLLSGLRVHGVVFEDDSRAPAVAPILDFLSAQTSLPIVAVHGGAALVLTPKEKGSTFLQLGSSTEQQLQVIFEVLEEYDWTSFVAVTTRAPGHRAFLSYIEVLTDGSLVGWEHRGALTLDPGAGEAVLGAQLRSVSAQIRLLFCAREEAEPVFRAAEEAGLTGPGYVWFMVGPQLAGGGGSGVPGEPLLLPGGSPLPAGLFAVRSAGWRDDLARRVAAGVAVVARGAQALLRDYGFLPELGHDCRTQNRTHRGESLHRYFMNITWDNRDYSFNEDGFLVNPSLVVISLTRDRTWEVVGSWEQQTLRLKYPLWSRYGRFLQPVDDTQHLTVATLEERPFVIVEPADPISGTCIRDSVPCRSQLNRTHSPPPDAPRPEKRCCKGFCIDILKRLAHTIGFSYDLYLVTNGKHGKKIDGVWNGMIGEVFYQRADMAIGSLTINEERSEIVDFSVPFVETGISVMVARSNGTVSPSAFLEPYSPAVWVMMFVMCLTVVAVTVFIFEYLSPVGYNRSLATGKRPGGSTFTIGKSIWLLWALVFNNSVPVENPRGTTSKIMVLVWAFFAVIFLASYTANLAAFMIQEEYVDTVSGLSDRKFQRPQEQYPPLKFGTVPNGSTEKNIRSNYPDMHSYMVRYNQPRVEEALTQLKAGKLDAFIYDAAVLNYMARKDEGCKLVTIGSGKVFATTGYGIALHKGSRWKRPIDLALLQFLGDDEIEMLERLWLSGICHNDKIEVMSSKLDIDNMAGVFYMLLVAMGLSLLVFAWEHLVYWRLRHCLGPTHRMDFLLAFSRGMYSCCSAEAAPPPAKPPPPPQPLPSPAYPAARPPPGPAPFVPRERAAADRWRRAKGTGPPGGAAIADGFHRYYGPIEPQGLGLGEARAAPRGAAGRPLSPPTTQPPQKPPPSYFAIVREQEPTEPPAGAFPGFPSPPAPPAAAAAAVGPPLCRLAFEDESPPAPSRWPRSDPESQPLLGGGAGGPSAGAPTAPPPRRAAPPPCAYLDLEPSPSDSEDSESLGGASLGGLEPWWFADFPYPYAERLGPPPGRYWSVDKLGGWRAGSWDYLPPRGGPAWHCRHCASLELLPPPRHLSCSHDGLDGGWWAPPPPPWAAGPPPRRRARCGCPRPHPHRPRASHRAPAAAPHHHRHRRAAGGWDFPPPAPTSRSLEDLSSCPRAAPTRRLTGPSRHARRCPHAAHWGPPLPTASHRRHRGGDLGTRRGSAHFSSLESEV

[7] = tested on: NMDAR-EPSCs in hippocampal CA1 pyramidal cells; test: Whole-cell patch-clamp of NMDAR-EPSCs in acute hippocampal slices; format: cell-based, mouse; conditions: 100 μM; +40 mV; P21–28 slices
[8] = tested on: NMDAR-EPSCs in hippocampal interneurons (CA1 s.r./s.l.m.); test: as above; format: cell-based, mouse
[9] = biological target: GluN1–1a/2A (Rattus norvegicus, UniProt P35439+Q00959); conditions: 100 μM spermine, −20 mV
GluN1–1a/2A, sequence (Q00959 23-1464, other chains not shown): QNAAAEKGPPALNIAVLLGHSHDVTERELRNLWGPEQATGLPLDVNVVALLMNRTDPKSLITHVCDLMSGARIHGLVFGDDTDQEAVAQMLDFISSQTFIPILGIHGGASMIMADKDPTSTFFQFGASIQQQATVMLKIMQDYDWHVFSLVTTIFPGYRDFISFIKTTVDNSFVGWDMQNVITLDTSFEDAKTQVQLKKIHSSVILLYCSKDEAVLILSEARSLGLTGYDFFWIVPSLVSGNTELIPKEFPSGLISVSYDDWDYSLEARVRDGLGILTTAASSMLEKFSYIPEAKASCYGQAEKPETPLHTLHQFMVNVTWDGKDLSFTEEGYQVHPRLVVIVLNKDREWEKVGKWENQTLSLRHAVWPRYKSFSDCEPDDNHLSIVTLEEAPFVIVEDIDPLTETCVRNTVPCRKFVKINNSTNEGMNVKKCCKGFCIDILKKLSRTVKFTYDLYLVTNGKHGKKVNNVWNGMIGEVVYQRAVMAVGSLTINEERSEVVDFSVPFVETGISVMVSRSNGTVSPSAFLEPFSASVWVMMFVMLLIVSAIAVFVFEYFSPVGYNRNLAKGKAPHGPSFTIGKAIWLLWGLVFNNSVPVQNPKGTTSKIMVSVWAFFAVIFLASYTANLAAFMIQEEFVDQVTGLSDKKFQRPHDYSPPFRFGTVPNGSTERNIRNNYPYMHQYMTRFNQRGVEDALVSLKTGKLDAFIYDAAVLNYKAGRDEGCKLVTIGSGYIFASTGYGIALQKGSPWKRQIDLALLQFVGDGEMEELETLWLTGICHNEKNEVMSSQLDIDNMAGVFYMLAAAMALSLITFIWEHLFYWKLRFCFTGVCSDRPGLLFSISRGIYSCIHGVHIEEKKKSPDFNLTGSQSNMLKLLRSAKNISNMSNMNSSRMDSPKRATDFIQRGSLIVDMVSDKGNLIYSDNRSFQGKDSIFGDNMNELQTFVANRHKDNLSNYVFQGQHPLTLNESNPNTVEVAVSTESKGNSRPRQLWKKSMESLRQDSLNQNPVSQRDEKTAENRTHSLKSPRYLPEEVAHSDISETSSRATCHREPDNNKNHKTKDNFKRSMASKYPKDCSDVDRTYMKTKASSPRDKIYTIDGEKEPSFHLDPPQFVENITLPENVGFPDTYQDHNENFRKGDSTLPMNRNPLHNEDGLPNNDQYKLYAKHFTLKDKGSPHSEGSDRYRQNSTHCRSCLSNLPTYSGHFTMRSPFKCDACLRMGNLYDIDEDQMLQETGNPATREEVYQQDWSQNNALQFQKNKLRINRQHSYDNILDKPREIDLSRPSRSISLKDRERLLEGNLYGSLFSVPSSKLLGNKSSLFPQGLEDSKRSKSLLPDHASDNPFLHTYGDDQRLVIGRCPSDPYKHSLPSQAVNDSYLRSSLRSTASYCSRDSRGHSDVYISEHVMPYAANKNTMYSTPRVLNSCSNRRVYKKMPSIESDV

[10] = biological target: GluN1–1a/2AC1/2BC2 (Rattus norvegicus, UniProt P35439+Q00959+Q00960, A876H/F846L/G856D/H848F/K857R/M851T/M860L/Q845K/V861L); conditions: 100 μM spermine, −20 mV
[11] = at 100 μM, pH 7.4, holding potential −20 mV, isoform 1a

GluN1–1a/2B, sequence (Q00960 27-1482, other chains not shown): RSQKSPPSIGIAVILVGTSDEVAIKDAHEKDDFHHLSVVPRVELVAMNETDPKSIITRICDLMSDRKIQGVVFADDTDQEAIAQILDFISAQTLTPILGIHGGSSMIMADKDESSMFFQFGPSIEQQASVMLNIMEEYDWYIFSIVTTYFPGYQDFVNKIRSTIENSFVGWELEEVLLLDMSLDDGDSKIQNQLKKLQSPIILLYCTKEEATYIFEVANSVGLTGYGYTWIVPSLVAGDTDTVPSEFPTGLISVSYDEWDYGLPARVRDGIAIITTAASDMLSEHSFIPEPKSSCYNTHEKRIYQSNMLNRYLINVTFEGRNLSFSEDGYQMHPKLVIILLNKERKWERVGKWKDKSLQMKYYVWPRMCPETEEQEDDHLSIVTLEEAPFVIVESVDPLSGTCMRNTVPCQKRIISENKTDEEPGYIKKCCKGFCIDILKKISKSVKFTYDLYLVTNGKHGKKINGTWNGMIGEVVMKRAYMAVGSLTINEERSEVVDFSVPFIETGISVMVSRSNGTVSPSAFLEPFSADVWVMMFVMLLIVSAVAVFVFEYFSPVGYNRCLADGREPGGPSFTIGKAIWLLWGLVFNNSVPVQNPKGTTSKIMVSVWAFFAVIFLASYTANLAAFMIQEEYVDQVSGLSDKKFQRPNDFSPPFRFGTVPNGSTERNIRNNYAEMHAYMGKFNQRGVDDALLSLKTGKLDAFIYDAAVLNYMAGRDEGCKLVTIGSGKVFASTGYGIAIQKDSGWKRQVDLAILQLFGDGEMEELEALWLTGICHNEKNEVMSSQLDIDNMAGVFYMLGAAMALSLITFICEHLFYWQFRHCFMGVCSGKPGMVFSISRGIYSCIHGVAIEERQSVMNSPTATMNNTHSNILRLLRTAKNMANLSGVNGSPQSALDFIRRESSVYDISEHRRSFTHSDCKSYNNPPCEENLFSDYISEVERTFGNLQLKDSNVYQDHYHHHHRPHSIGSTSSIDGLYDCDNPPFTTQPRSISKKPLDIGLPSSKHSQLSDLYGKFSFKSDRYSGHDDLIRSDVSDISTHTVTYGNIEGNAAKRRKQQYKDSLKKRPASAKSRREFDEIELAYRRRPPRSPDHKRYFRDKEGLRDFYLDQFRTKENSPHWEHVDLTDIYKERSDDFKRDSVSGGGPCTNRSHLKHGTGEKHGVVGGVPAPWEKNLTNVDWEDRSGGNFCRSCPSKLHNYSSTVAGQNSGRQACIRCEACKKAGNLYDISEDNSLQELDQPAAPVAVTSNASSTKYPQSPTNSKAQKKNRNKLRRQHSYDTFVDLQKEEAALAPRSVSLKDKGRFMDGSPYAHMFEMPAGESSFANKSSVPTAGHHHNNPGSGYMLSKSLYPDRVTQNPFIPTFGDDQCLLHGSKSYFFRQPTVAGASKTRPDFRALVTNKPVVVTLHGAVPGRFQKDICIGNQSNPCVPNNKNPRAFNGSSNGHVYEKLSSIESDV

For CC(C(O)c1ccc(O)cc1)N1CCC(Cc2ccccc2)CC1 (centres unmarked) [ifenprodil], the “nH (Hill coefficient)” value ([1]; inhibition, isoform 1a) was 1.1, the maximal inhibition ([1]; isoform 1a) was ~ 95% and the “nH (Hill coefficient)” value ([2]; inhibition, isoform 1a) was 1.1. For the same compound, the maximal inhibition ([2]; isoform 1a) was ~ 65%, the “nH (Hill coefficient)” value ([3]; inhibition) was 1.8 and the maximal inhibition [3] was 88%. For the same compound, the “nH (Hill coefficient)” value ([4]; inhibition) was 1.1, the maximal inhibition [4] was 69% and the IC50 [5] was 129 nM. The maximal inhibition [5] was 71.5%.
For NCCCNCCCCNCCCN [spermine], the “Spermine modulation (% control)” value ([1]; pH 6.8) was 585 ± 29 % control, the “Spermine modulation (% control)” value ([1]; pH 7.4) was 211 ± 6 % control and the “Spermine modulation (% control)” value ([1]; pH 7.4, listed as Spermine) was 211 % control. The “Relative Imax” value [1, 11] was 211 ± 6%, the “Spermine modulation (% control)” value ([2]; pH 6.8) was 233 ± 10 % control and the “Spermine modulation (% control)” value ([2]; pH 7.4) was 150 ± 2 % control. The “Spermine modulation (% control)” value ([2]; pH 7.4, listed as Spermine) was 150 % control, the “Relative Imax” value [2, 11] was 150 ± 2% and the “Spermine modulation (% control)” value ([6]; pH 6.8) was 82 ± 1 % control. For the same compound, the “Spermine modulation (% control)” value ([6]; pH 7.4) was 71 ± 0.4 % control, the “Spermine modulation (% control)” value ([6]; pH 7.4, listed as Spermine) was 71 % control and the “Relative Imax” value [6, 11] was 71 ± 0.4%. For the same compound, the “NMDAR-EPSC peak amplitude, % of baseline” value [7] was 95 ± 5 % of baseline, the “NMDAR-EPSC peak amplitude, % of baseline” value ([8]; 100 μM, +40 mV, P21–28 slices) was 137 ± 13 % of baseline and the “effect on EPSC decay time” value ([8]; treatment versus baseline, paired t test, 10 μM (spermine 100 μM)) was “unchanged”. The “Spermine modulation (% control)” value ([9]; pH 6.8) was 79 ± 1 % control, the “Spermine modulation (% control)” value ([9]; pH 7.4) was 72 % control and 72 ± 1 % control and the “Spermine modulation (% control)” value ([10]; pH 6.8) was 95 ± 0.1 % control. The “Spermine modulation (% control)” value ([10]; pH 7.4) was 80 ± 1 % control.

— PMC6858497 (The Journal of physiology, 2019)
